What follows are compounds tested against T1, HIV-I Protease (Human immunodeficiency virus type 1 group M subtype B, UniProt P04585) (assay: HIV protease inhibition (hydrolysis of undecapeptide substrate, HPLC readout)). Details: 40 µM substrate, pH 4.7, 37 °C, 5 minutes; read-out: 50% Inhibition Concentration (Averaged).
T1 construct: HIV-I Protease: The enzyme is obtained from Bachem Bioscience Inc; purchased Bachem Bioscience Inc
Type: biochemical
Description: • DTT Buffer: 1.0 mM dithiothreitol (DTT) was prepared fresh daily in 0.1% polyethylene glycol (mw 8000) 80 mM NaOAc, 160 mM NaCl, 1.0 mM EDTA, and brought to pH 4.7 with HCl. • HIV-I Protease: The enzyme is obtained from Bachem Bioscience Inc. The undiluted enzyme is thawed from -80 °C and diluted 50-fold with DTT buffer. The solution is always kept at 0 °C on ice water and used in the experiment within 20 minutes after thawing. • Enzyme Substrate: Substrate III from Bachem Bioscience Inc. is the undecapeptide H-His-Lys-Ala-Arg-Val-Leu-p-Nitrophenylalanine-Glu-Ala-Norleucine-ser-NH2 (> 97 % purity). A 200. µM stock solution in DTT buffer is prepared and stored on ice. Substrate solution is prepared fresh daily. • Test Compound: 10 mM inhibitor (I) in dimethyl sulfoxide (DMSO) is diluted to 200 µM with DTT buffer. From the 200 µM stock solution is made a 10 µM stock solution with 2% DMSO in DTT buffer. The two inhibitor solutions are used to make final [I] = 100, 50, 20, 10, 5, 2, 1, 0.5 and 0 µM with 2% DMSO in DTT buffer in each reaction well (total inhibitor volume of 50 µl).
To each reaction well is added 20 µl of substrate (final concentration of 40 µM), 50 µl of inhibitor (at a concentration such that final dilution will produce the test concentration) and 20 µl of DTT buffer. The reaction plate (96 wells) is incubated at 37 °C for at least 5 minutes.
10 µl of the diluted protease is added to the reaction well while the reaction plate is shaking. Once shaken for 10 seconds, the plate is returned to the heating block at 37 °C. (Final reaction volume = 100 µl.)
The reaction is incubated for 5 minutes at 37 °C. The reaction is stopped by placing the reaction plate on the shaker and adding 20 µl of 10% trifluoroacetic acid (TFA) and shaking for 10 seconds. The amount of proteolysis is then determined by separation of noncleaved substrate and two cleaved products with reverse-phase HPLC, while measuring absorbance at 220 nm to determine the relative peak areas of the three components. The relative peak areas are used to calculate % conversion to product as a function of inhibitor concentration. The data is plotted as % Control (the ratio of % conversion in the presence and absence of inhibitor x 100) versus inhibitor concentration and fit with the equation Y= 100/1+(X/IC50)^A, where IC50 is the inhibitor concentration at 50% inhibition and A is the slope of the inhibition curve.

Row | Structure (SMILES) | IC50 [nM]
1 | O=c1oc(-c2ccccc2)cc(O)c1SCCOc1ccccc1 [Example 20, 4-Hydroxy-3-[(2-phenoxyethyl)thio]-6-phenyl-2H-pyran-2-one] | 1700
2 | O=c1oc(-c2ccccc2)cc(O)c1SC/C=C/c1ccccc1 [Example 25, 4-Hydroxy-6-phenyl-3-[3-(phenyl-2-propenyl)thio]-2H-pyran-2-one, (E)-] | 1900
3 | O=c1oc(-c2ccc(OCc3ccccn3)cc2)cc(O)c1SCCc1ccccc1 [Example 59, 4-Hydroxy-3-[(2-phenylethyl)thio]-6-[4-(2-pyridinylmethoxy)phenyl]-2H-pyran-2-one] | 770
4 | O=c1oc(-c2cccc(OCCc3ccccc3)c2)cc(O)c1SCCc1ccccc1 [Example 30, 4-Hydroxy-6-[3-(2-phenylethoxy)phenyl]-3-[(2-phenyl-ethyl)thio]-2H-pyran-2-one] | 1970
5 | Cc1cccc(-c2cc(O)c(SCc3ccccc3)c(=O)o2)c1 [Example 42, 4-Hydroxy-6-(3-methylphenyl)-3-[(phenylmethyl)thio]-2H-pyran-2-one] | 860
6 | O=c1oc(-c2ccccc2)cc(O)c1SCc1ccccc1 [Example 8] | 1700
7 | O=c1oc(-c2cccc(O)c2)cc(O)c1SCc1ccccc1 [Example 23, 4-Hydroxy-6-(3-hydroxyphenyl)-3-[(phenylmethyl)thio]-2H-pyran-2-one] | 1200
8 | O=c1oc(-c2ccccc2)cc(O)c1C(Sc1ccccc1)c1ccccc1 (racemic) [Example 31, 4-Hydroxy-6-phenyl-3-[phenyl(phenylthio)methyl]-2H-pyran-2-one] | 800
9 | O=c1oc(-c2ccc(Oc3ccccc3)cc2)cc(O)c1SCCc1ccccc1 [Example 57, 4-Hydroxy-6-(4-phenoxyphenyl)-3-[(2-phenylethyl)thio]-2H-pyran-2-one] | 1900
10 | COc1cccc(-c2cc(O)c(SCc3ccccc3)c(=O)o2)c1 [Example 4, 4-Hydroxy-6-(3-methoxyphenyl)-3-[(phenylmethyl)thio]-2H-pyran-2-one] | 900
11 | O=c1oc(-c2ccc(Cl)c(Cl)c2)cc(O)c1SCc1ccccc1 [Example 3, 6-(3,4-Dichlorophenyl)-4-hydroxy-3-[(phenylmethyl)thio]-2H-pyran-2-one] | 1000

Second part, the compound after the results:

Row | IC50 [nM] | Structure (SMILES)
12 | 230 | O=c1oc(-c2ccccc2)cc(O)c1C(SC1CCCC1)C1CCCC1 (racemic) [Example 151, 3-[Cyclopentyl(cyclopentylthio)methyl]-4-hydroxy-6-phenyl-2H-pyran-2-one]
13 | 410 | CC(C)CC(Sc1ccccc1)c1c(O)cc(-c2ccccc2)oc1=O (racemic) [Example 73, 4-Hydroxy-3-[3-methyl-1-(phenylthio)butyl]-6-phenyl-2H-pyran-2-one]
14 | 140 | O=C(O)COc1ccc(-c2cc(O)c(SCCc3ccccc3)c(=O)o2)cc1 [Example 63, 4-[4-Hydroxy-2-oxo-3-[(2-phenylethyl)thio]-2H-pyran-6-yl]phenoxyacetic acid]
15 | 690 | O=c1oc(-c2ccc(O)cc2)cc(O)c1SCc1ccccc1 [Example 15, 4-Hydroxy-6-(4-hydroxyphenyl)-3-[(phenylmethyl)thio]-2H-pyran-2-one]
16 | 700 | COc1ccc(-c2cc(O)c(SCc3ccccc3)c(=O)o2)cc1C [Example 46, 4-Hydroxy-6-(4-methoxy-3-methylphenyl)-3-[(phenylmethyl)thio]-2H-pyran-2-one]
17 | 410 | O=c1oc(-c2cccc(-c3ccccc3)c2)cc(O)c1Sc1ccc2ccccc2c1 [Example 168, 6-(1,1'-Biphenyl-3-yl)-4-hydroxy-3-[(naphthalen-2-yl)thio]-2H-pyran-2-one]
18 | 470 | O=c1oc(-c2cccc(Cl)c2)cc(O)c1SCc1ccccc1 [Example 1, 6-(3-Chlorophenyl)-4-hydroxy-3-[(phenylmethyl)thio]-2H-pyran-2-one]
19 | 500 | O=c1oc(-c2ccc(O)cc2)cc(O)c1SCCc1ccccc1 [Example 24, 4-Hydroxy-6-(4-hydroxyphenyl)-3-[(phenylethyl)thio]-2H-pyran-2-one]
20 | 400 | O=c1oc(-c2cccc(Cl)c2)cc(O)c1SCCc1ccccc1 [Example 6, 6-(3-Chlorophenyl)-4-hydroxy-3-[(2-phenylethyl)thio]-2H-pyran-2-one]
21 | 70 | CC(C)CC(SC1CCCC1)c1c(O)cc(-c2ccccc2)oc1=O (racemic) [Example 96, 3-[1-(Cyclopentylthio)-3-methylbutyl]-4-hydroxy-6-phenyl-2H-pyran-2-one]
22 | 60 | O=c1oc(-c2ccccc2)cc(O)c1C(CC1CC1)SCc1ccccc1 (racemic) [Example 119, 3-[2-Cyclopropyl-1-[(phenylmethyl)thio]ethyl]-4-hydroxy-6-phenyl-2H-pyran-2-one]
23 | 68 | CC(C)c1ccccc1Sc1c(O)cc(-c2ccc(OCc3cccnc3)cc2)oc1=O [Example 157, 4-Hydroxy-3-[(2-isopropylphenyl)thio]-6-[4-(pyridin-3-ylmethoxy)phenyl]-2H-pyran-2-one]
24 | 750 | O=c1oc(-c2cccc(OCc3ccccc3)c2)cc(O)c1SCCc1ccccc1 [Example 39, 4-Hydroxy-3-[(2-phenylethyl)thio]-6-[3-(phenylmethoxy)phenyl]-2H-pyran-2-one]
25 | 240 | Cc1cc(-c2cc(O)c(SCc3ccccc3)c(=O)o2)cc(C)c1O [Example 99, 4-Hydroxy-6-(4-hydroxy-3,5-dimethylphenyl)-3-[(phenylmethyl)thio]-2H-pyran-2-one]
26 | 630 | Cc1cc(C)cc(-c2cc(O)c(Sc3ccccc3)c(=O)o2)c1 [Example 148, 6-(3,5-Dimethylphenyl)-4-hydroxy-3-(phenylthio)-2H-pyran-2-one]
27 | 450 | COc1ccccc1COc1ccc(-c2cc(O)c(SCCc3ccccc3)c(=O)o2)cc1 [Example 54, 4-Hydroxy-6-[4-[(2-methoxyphenyl)methoxy]phenyl]-3-[(2-phenylethyl)thio]-2H-pyran-2-one]
28 | 200 | CC(C)CC(SC1CCCCC1)c1c(O)cc(-c2ccc3c(c2)OCCO3)oc1=O (racemic) [Example 115, 3-[1-(Cyclohexylthio)-3-methylbutyl]-6-(2,3-dihydro-1,4-benzodioxin-6-yl)4-hydroxy-2H-pyran-2-one]
29 | 600 | O=c1oc(-c2ccc3c(c2)OCO3)cc(O)c1SCc1ccccc1 [Example 50, 6-(1,3-Benzodioxol-5-yl)-4-hydroxy-3-[(phenylmethyl)thio]-2H-pyran-2-one]
30 | 610 | CCOC(=O)COc1ccc(-c2cc(O)c(SCCc3ccccc3)c(=O)o2)cc1 [Example 60, 4-[4-Hydroxy-2-oxo-3-[(2-phenylethyl)thio]-2H-pyran-6-yl]phenoxy acetic acid ethyl eater]

Same assay, conditions: read-out: 50% Inhibition Concentration (Averaged)

Row | IC50 [nM] | Structure (SMILES)
31 | 480 | O=c1oc(-c2ccc3c(c2)OCCO3)cc(O)c1SCc1ccccc1 [Example 107, 6-(2,3-Dihydro-1,4-benzodioxin-6-yl)-4-hydroxy-3-[(phenylmethyl)thio]-2H-pyran-2-one]
32 | 55 | O=c1oc(-c2ccccc2)cc(O)c1C(CC1CC1)SC1CCCC1 (racemic) [Example 149, 3-[1-[Cyclopentylthio]-2-cyclopropylethyl]-4-hydroxy-6-phenyl-2H-pyran-2-one]

What follows are compounds tested on HIV-1iiib (assay: Anti-HIV-1 activity, acute infection of H9 cells). Details: Human immunodeficiency virus 1; H9 cell line infected with HIV-1iiib; reverse transcriptase assay at 4 and 7 days post infection; read-out: Concentration for 50% Protection.
Type: cell-based
Description: Using the general methods of Pauwels et al., (J. Virol. Methods, 16, 171-185, 1987) and Mann et al. (AIDS Research and Human Retroviruses, 253-255, 1989) anti-viral assays of acute HIV-1 infection were performed in the H9 cell line. Cultures were batch infected in 1 ml of RPM1 1640 media/10% fetal calf serum containing 10^7 cells and 10^5 infectious doses of HIV-1iiib for an effective multiplicity of infection of 0.01. After 2 hours of viral absorption, cells were washed once and plated in 96-well microtiter plates at a density of 10^4 cells per well. Test compounds were added to produce the desired concentration of drug and 0.2% DMSO in a final volume of 200 µl. Uninfected parallel cultures were maintained for XTT cytotoxicity assay at 7 days post infection. Cultures were tested for viral replication by reverse transcriptase assay at 4 and 7 days post infection.

Row | Structure (SMILES) | EC50 [nM]
33 | O=c1oc(-c2ccc3c(c2)OCCO3)cc(O)c1SCc1ccccc1 [Example 107, 6-(2,3-Dihydro-1,4-benzodioxin-6-yl)-4-hydroxy-3-[(phenylmethyl)thio]-2H-pyran-2-one] | 15000
34 | Cc1cc(C)cc(-c2cc(O)c(Sc3ccccc3C(C)C)c(=O)o2)c1 [Example 154, 6-(3,5-Dimethylphenyl)-4-hydroxy-3-[(2-isopropylphenyl)-thio]-2H-pyran-2-one] | 31000

Other lines, results leading:

Row | EC50 [nM] | Structure (SMILES)
35 | 14000 | O=c1oc(-c2ccccc2)cc(O)c1C(SC1CCCC1)C1CCCC1 (racemic) [Example 151, 3-[Cyclopentyl(cyclopentylthio)methyl]-4-hydroxy-6-phenyl-2H-pyran-2-one]
36 | 15000 | CC(C)CC(Sc1ccccc1)c1c(O)cc(-c2ccccc2)oc1=O (racemic) [Example 73, 4-Hydroxy-3-[3-methyl-1-(phenylthio)butyl]-6-phenyl-2H-pyran-2-one]
37 | 650 | CC(C)c1ccccc1Sc1c(O)cc(-c2ccc(OCc3cccnc3)cc2)oc1=O [Example 157, 4-Hydroxy-3-[(2-isopropylphenyl)thio]-6-[4-(pyridin-3-ylmethoxy)phenyl]-2H-pyran-2-one]

— patent EP0729465B1, “PYRONE DERIVATIVES AS PROTEASE INHIBITORS AND ANTIVIRAL AGENTS” (PARKE, DAVIS & COMPANY, priority 1993, dated 1995)
